PubChem BioAssay AID1845202 (Molecular Pharmacology Branch, DTP, NCI, 2023)
pIC50: −log10 of the molar value.

Tested on: DMS 114 tumor spheroids, viability % test/control
Assay: Anticancer human tumor DMS 114 cell line growth inhibition;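 also: spheroids exposed to compounds for 7 days before read-out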;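 as to viability, T/C: luminescence used as a proxy for viable cells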
Conditions: spheroids with HUVEC and MSC; for pIC50: curve of first compound; for viability, T/C: stronger effect = lower value
Method in brief: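 Complex spheroids of malignant cells with endothelial cells and mesenchymal stem cells; agents alone or combined, from near clinical Cmax (or 10 microM if unknown) down in half-log steps, 0.25% DMSO final.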

COc1ccc([C@@H](O)c2cc(-c3ncnc4cc(N5CCOCC5)ccc34)c(F)cc2Cl)nn1 + Cn1nnc2c(C(N)=O)ncn2c1=O
pIC50 (second compound 1 µM): 5.07
pIC50 (second compound 3.16 µM): < 5.00
pIC50 (second compound 10 µM): 5.00
pIC50 (second compound 31.6 µM): 5.07
pIC50 (second compound 100 µM): 5.23
viability, T/C (second compound 1 µM, first compound 0.0316 µM): 101%
viability, T/C (second compound 1 µM, first compound 0.1 µM): 103%
viability, T/C (second compound 1 µM, first compound 0.316 µM): 99.3%
viability, T/C (second compound 1 µM, first compound 1 µM): 114%
viability, T/C (second compound 1 µM, first compound 3.16 µM): 94.8%
viability, T/C (second compound 1 µM, first compound 10 µM): 42.3%
viability, T/C (second compound 3.16 µM, first compound 0.0316 µM): 107%
viability, T/C (second compound 3.16 µM, first compound 0.1 µM): 109%
viability, T/C (second compound 3.16 µM, first compound 0.316 µM): 102%
viability, T/C (second compound 3.16 µM, first compound 1 µM): 117%
viability, T/C (second compound 3.16 µM, first compound 3.16 µM): 95.6%
viability, T/C (second compound 3.16 µM, first compound 10 µM): 50.5%
viability, T/C (second compound 10 µM, first compound 0.0316 µM): 100%
viability, T/C (second compound 10 µM, first compound 0.1 µM): 108%
viability, T/C (second compound 10 µM, first compound 0.316 µM): 114%
viability, T/C (second compound 10 µM, first compound 1 µM): 106%
viability, T/C (second compound 10 µM, first compound 3.16 µM): 86.9%
viability, T/C (second compound 10 µM, first compound 10 µM): 49.8%
viability, T/C (second compound 31.6 µM, first compound 0.0316 µM): 104%
viability, T/C (second compound 31.6 µM, first compound 0.1 µM): 95.8%
viability, T/C (second compound 31.6 µM, first compound 0.316 µM): 95.8%
viability, T/C (second compound 31.6 µM, first compound 1 µM): 109%
viability, T/C (second compound 31.6 µM, first compound 3.16 µM): 79.8%
viability, T/C (second compound 31.6 µM, first compound 10 µM): 45%
viability, T/C (second compound 100 µM, first compound 0.0316 µM): 88.8%
viability, T/C (second compound 100 µM, first compound 0.1 µM): 95.8%
viability, T/C (second compound 100 µM, first compound 0.316 µM): 95.1%
viability, T/C (second compound 100 µM, first compound 1 µM): 81.4%
viability, T/C (second compound 100 µM, first compound 3.16 µM): 69.5%
viability, T/C (second compound 100 µM, first compound 10 µM): 34%

CC(C)n1c(=O)n(C)c2cnc3cc(F)c(-c4ccc(OCCCN5CCCCC5)nc4)cc3c21 + CC[C@@]1(O)C(=O)OCc2c1cc1n(c2=O)Cc2cc3c(CN(C)C)c(O)ccc3nc2-1
pIC50 (second compound 0.003 µM): 5.71
pIC50 (second compound 0.00949 µM): > 7.50
pIC50 (second compound 0.03 µM): > 7.50
pIC50 (second compound 0.0949 µM): > 7.50
pIC50 (second compound 0.3 µM): > 7.50
viability, T/C (second compound 0.003 µM, first compound 0.0316 µM): 75.1%
viability, T/C (second compound 0.003 µM, first compound 0.1 µM): 72.8%
viability, T/C (second compound 0.003 µM, first compound 0.316 µM): 63.4%
viability, T/C (second compound 0.003 µM, first compound 1 µM): 61.1%
viability, T/C (second compound 0.003 µM, first compound 3.16 µM): 43.5%
viability, T/C (second compound 0.003 µM, first compound 10 µM): 16.7%
viability, T/C (second compound 0.00949 µM, first compound 0.0316 µM): 37.9%
viability, T/C (second compound 0.00949 µM, first compound 0.1 µM): 37.9%
viability, T/C (second compound 0.00949 µM, first compound 0.316 µM): 33.3%
viability, T/C (second compound 0.00949 µM, first compound 1 µM): 31.3%
viability, T/C (second compound 0.00949 µM, first compound 3.16 µM): 25%
viability, T/C (second compound 0.00949 µM, first compound 10 µM): 10.4%
viability, T/C (second compound 0.03 µM, first compound 0.0316 µM): 24.7%
viability, T/C (second compound 0.03 µM, first compound 0.1 µM): 24.6%
viability, T/C (second compound 0.03 µM, first compound 0.316 µM): 23.9%
viability, T/C (second compound 0.03 µM, first compound 1 µM): 20.2%
viability, T/C (second compound 0.03 µM, first compound 3.16 µM): 18.2%
viability, T/C (second compound 0.03 µM, first compound 10 µM): 9.25%
viability, T/C (second compound 0.0949 µM, first compound 0.0316 µM): 13.6%
viability, T/C (second compound 0.0949 µM, first compound 0.1 µM): 15.6%
viability, T/C (second compound 0.0949 µM, first compound 0.316 µM): 11.3%
viability, T/C (second compound 0.0949 µM, first compound 1 µM): 14.2%
viability, T/C (second compound 0.0949 µM, first compound 3.16 µM): 11.2%
viability, T/C (second compound 0.0949 µM, first compound 10 µM): 7.13%
viability, T/C (second compound 0.3 µM, first compound 0.0316 µM): 9.95%
viability, T/C (second compound 0.3 µM, first compound 0.1 µM): 9.05%
viability, T/C (second compound 0.3 µM, first compound 0.316 µM): 9.41%
viability, T/C (second compound 0.3 µM, first compound 1 µM): 9.97%
viability, T/C (second compound 0.3 µM, first compound 3.16 µM): 8.36%
viability, T/C (second compound 0.3 µM, first compound 10 µM): 6.56%
